Experimental findings from the supplement of paper PMC10307832 are described below.

Holding throughout (experiment): relative viability (nuclei count vs DMSO), 5 days (fraction); higher = more cells survive
Compound in the experiment “Cediranib + Alpelisib”: COc1cc2c(Oc3ccc4[nH]c(C)cc4c3F)ncnc2cc1OCCCN1CCCC1 [Cediranib] + Cc1nc(NC(=O)N2CCC[C@H]2C(N)=O)sc1-c1ccnc(C(C)(C)C(F)(F)F)c1 [Alpelisib] (partner 2 µM)
An outline of the steps: (§1)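 For relative viability, nuclei counts in treated wells were divided by those in vehicle wells. Lung cancer cell lines had been pin-tool dosed in 1536-well plates the day after seeding and cultured for 5 days, then fixed and stained in one step (final 0.05% Triton X-100, 1% formaldehyde, 1 ug/ml Hoechst) and imaged at 4×. Doses were one drug alone or a fixed anchor-drug dose plus five library-drug doses (not always all listed) in √10 steps, and values are duplicate-plate medians.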

Compound in the experiment “Decitabine + Palbociclib”: Nc1ncn([C@H]2C[C@H](O)[C@@H](CO)O2)c(=O)n1 [Decitabine] + CC(=O)c1c(C)c2cnc(Nc3ccc(N4CCNCC4)cn3)nc2n(C2CCCC2)c1=O [Palbociclib] (partner 0.5 µM)
In short, it runs like this: as §1

Compound in the experiment “Decitabine + Vorinostat”: Nc1ncn([C@H]2C[C@H](O)[C@@H](CO)O2)c(=O)n1 [Decitabine] + O=C(CCCCCCC(=O)Nc1ccccc1)NO [Vorinostat] (partner 1 µM)
An outline of the steps:
as §1

Compound in the experiment “Halofuginone + AZD7762”: O=C(C[C@H]1NCCC[C@@H]1O)Cn1cnc2cc(Br)c(Cl)cc2c1=O (racemic) [Halofuginone] + NC(=O)Nc1cc(-c2cccc(F)c2)sc1C(=O)N[C@H]1CCCNC1 [AZD7762] (partner 0.2 µM)
An outline of the steps:
as §1

Regarding NCI-H2405, the relative viability in the experiment with Cediranib + Alpelisib (first compound 0.04 µM) turned out to be 0.815; with Cediranib + Alpelisib (first compound 0.1265 µM), 1.07; with Cediranib + Alpelisib (first compound 0.4 µM), 0.631; with Cediranib + Alpelisib (first compound 1.265 µM), 0.77; with Cediranib + Alpelisib (first compound 4 µM), 0.758; in the experiment with Decitabine + Palbociclib (first compound 0.04 µM) it was 0.511. The relative viability is 0.516 with Decitabine + Palbociclib (first compound 0.1265 µM); 0.436 with Decitabine + Palbociclib (first compound 0.4 µM); 0.397 with Decitabine + Palbociclib (first compound 1.265 µM); 0.349 in the experiment with Decitabine + Palbociclib (first compound 4 µM); 0.765 with Decitabine + Vorinostat (first compound 0.04 µM); 0.878 with Decitabine + Vorinostat (first compound 0.1265 µM). The relative viability with Decitabine + Vorinostat (first compound 0.4 µM) came out at 0.894; in the experiment with Decitabine + Vorinostat (first compound 1.265 µM), 0.561; with Decitabine + Vorinostat (first compound 4 µM), 0.395; in the experiment with Halofuginone + AZD7762 (first compound 0.001 µM), 0.79; in the experiment with Halofuginone + AZD7762 (first compound 0.003162 µM), 0.881; in the experiment with Halofuginone + AZD7762 (first compound 0.01 µM), 0.674. Moreover, the figures for the relative viability with Halofuginone + AZD7762 (first compound 0.03162 µM) and with Halofuginone + AZD7762 (first compound 0.1 µM) were 0.678 and 0.541, respectively.

As for NCI-H3122, the relative viability was determined as 0.894 with Cediranib + Alpelisib (first compound 0.04 µM); 1.06 in the experiment with Cediranib + Alpelisib (first compound 0.1265 µM); 0.731 with Cediranib + Alpelisib (first compound 0.4 µM); 0.852 with Cediranib + Alpelisib (first compound 1.265 µM); 0.906 with Cediranib + Alpelisib (first compound 4 µM); 0.2 with Decitabine + Palbociclib (first compound 0.04 µM). Moreover, the relative viability with Decitabine + Palbociclib (first compound 0.1265 µM) stood at 0.213; in the experiment with Decitabine + Palbociclib (first compound 0.4 µM) it was 0.183; in the experiment with Decitabine + Palbociclib (first compound 1.265 µM), 0.181; in the experiment with Decitabine + Palbociclib (first compound 4 µM), 0.191; with Decitabine + Vorinostat (first compound 0.04 µM), 0.92; with Decitabine + Vorinostat (first compound 0.1265 µM), 0.866. The relative viability in the experiment with Decitabine + Vorinostat (first compound 0.4 µM) is 0.574; with Decitabine + Vorinostat (first compound 1.265 µM), 0.53; with Decitabine + Vorinostat (first compound 4 µM) it was 0.487; with Halofuginone + AZD7762 (first compound 0.001 µM), 0.937; with Halofuginone + AZD7762 (first compound 0.003162 µM), 1.09; with Halofuginone + AZD7762 (first compound 0.01 µM) it was 0.985. Further, the relative viability with Halofuginone + AZD7762 (first compound 0.03162 µM) stood at 0.94; in the experiment with Halofuginone + AZD7762 (first compound 0.1 µM) it was 0.922.

In the case of PC-3 [JPC-3], the relative viability with Cediranib + Alpelisib (first compound 0.04 µM) is 0.953; in the experiment with Cediranib + Alpelisib (first compound 0.1265 µM) it was 0.976; with Cediranib + Alpelisib (first compound 0.4 µM), 0.998; in the experiment with Cediranib + Alpelisib (first compound 1.265 µM), 1.02; with Cediranib + Alpelisib (first compound 4 µM), 0.97; with Decitabine + Palbociclib (first compound 0.1265 µM), 0.572. Besides, the relative viability with Decitabine + Palbociclib (first compound 0.4 µM) was 0.496; with Decitabine + Palbociclib (first compound 1.265 µM), 0.493; in the experiment with Decitabine + Palbociclib (first compound 4 µM), 0.511; in the experiment with Decitabine + Vorinostat (first compound 0.1265 µM) it was 0.554; in the experiment with Decitabine + Vorinostat (first compound 0.4 µM), 0.507; with Decitabine + Vorinostat (first compound 1.265 µM) it was 0.454. Also, the relative viability is 0.567 with Decitabine + Vorinostat (first compound 4 µM); 0.881 in the experiment with Halofuginone + AZD7762 (first compound 0.001 µM); 0.933 with Halofuginone + AZD7762 (first compound 0.003162 µM); 0.669 with Halofuginone + AZD7762 (first compound 0.01 µM); 0.783 with Halofuginone + AZD7762 (first compound 0.03162 µM); 0.499 in the experiment with Halofuginone + AZD7762 (first compound 0.1 µM).

PC-14: the relative viability was determined as 0.96 with Cediranib + Alpelisib (first compound 0.04 µM); 1 with Cediranib + Alpelisib (first compound 0.1265 µM); 0.906 in the experiment with Cediranib + Alpelisib (first compound 0.4 µM); 0.965 in the experiment with Cediranib + Alpelisib (first compound 1.265 µM); 0.986 in the experiment with Cediranib + Alpelisib (first compound 4 µM); 0.435 in the experiment with Decitabine + Palbociclib (first compound 0.04 µM). The relative viability was 0.36 with Decitabine + Palbociclib (first compound 0.1265 µM); 0.264 with Decitabine + Palbociclib (first compound 0.4 µM); 0.112 with Decitabine + Palbociclib (first compound 1.265 µM); 0.098 with Decitabine + Palbociclib (first compound 4 µM); 0.0877 with Decitabine + Vorinostat (first compound 0.04 µM); 0.265 with Decitabine + Vorinostat (first compound 0.1265 µM). In addition, the relative viability with Decitabine + Vorinostat (first compound 0.4 µM) amounted to 0.125; with Decitabine + Vorinostat (first compound 1.265 µM), 0.0989; in the experiment with Decitabine + Vorinostat (first compound 4 µM) it was 0.0956; in the experiment with Halofuginone + AZD7762 (first compound 0.001 µM) it was 0.435; in the experiment with Halofuginone + AZD7762 (first compound 0.003162 µM), 0.409; with Halofuginone + AZD7762 (first compound 0.01 µM), 0.381. The relative viability came out at 0.366 in the experiment with Halofuginone + AZD7762 (first compound 0.03162 µM) and 0.198 with Halofuginone + AZD7762 (first compound 0.1 µM).

Regarding RERF-LC-KJ, the relative viability with Cediranib + Alpelisib (first compound 0.04 µM) turned out to be 0.771; with Cediranib + Alpelisib (first compound 0.4 µM) it was 0.769; with Cediranib + Alpelisib (first compound 1.265 µM), 0.761; in the experiment with Cediranib + Alpelisib (first compound 4 µM), 0.739; in the experiment with Decitabine + Palbociclib (first compound 0.04 µM) it was 1.02; in the experiment with Decitabine + Palbociclib (first compound 0.1265 µM), 1.02. Further, the relative viability came out at 0.404 with Decitabine + Palbociclib (first compound 0.4 µM); 0.633 with Decitabine + Palbociclib (first compound 1.265 µM); 0.636 in the experiment with Decitabine + Palbociclib (first compound 4 µM); 0.573 with Decitabine + Vorinostat (first compound 0.04 µM); 0.651 in the experiment with Decitabine + Vorinostat (first compound 0.1265 µM); 0.286 with Decitabine + Vorinostat (first compound 0.4 µM). Further, the relative viability with Decitabine + Vorinostat (first compound 1.265 µM) amounted to 0.528; with Decitabine + Vorinostat (first compound 4 µM), 0.494; with Halofuginone + AZD7762 (first compound 0.001 µM) it was 1.1; with Halofuginone + AZD7762 (first compound 0.003162 µM), 1.15; with Halofuginone + AZD7762 (first compound 0.01 µM), 1.05; with Halofuginone + AZD7762 (first compound 0.03162 µM), 0.96. Also, the relative viability with Halofuginone + AZD7762 (first compound 0.1 µM) amounted to 0.956.
